{"source": "patent US20020165130A1", "about": "“Method of sensitizing microbial cells to antimicrobial compounds” (priority 1998, published 2002)", "key": {"[1]": {"tested_on": "Staphylococcus aureus ATCC 6538", "assay": "Antibiotic disc assay (zones of inhibition), S. aureus", "format": "cell-based", "procedure": "(§1) Erwinia sp. #351 was from Presque Isle Cultures, Presque Isle, Pa. Lactobacillus fermentum ATCC 14931, zygosaccharomyces bailii ATCC 60483 and E. coli ATCC 25922 (National Committee on Clinical Laboratory Standards antibiotic test strain) were from the American Type Culture Collection, Manassas, Va. Staphylococcus aureus ATCC 6538 and Enterococcus faecalis Bact. 4025 were obtained from the UW-Madison Department of Bacteriology culture collection. All bacteria except for L. fermentum were grown statically in screwcap tubes containing 10 ml Trypticase Soy Broth (BBL, Cockeysville, Md.) for 20-22 hours at 30° C. L. fermentum was grown statically in screwcap tubes containing 10 ml MRS broth (Difco) for 20-22 hours at 30° C. Cultures of Z. bailii were grown in 125 ml culture flasks containing 50 ml YM broth (Difco) on a rotary shaker set at 200 rpm for 20-22 hours at 25° C.\n(§2) The activity of terpenoid compounds toward facilitating susceptibility to antibiotics was assessed using an antibiotic disc assay. For this assay, cells from an overnight growth were suspended to a known concentration in 0.5 ml 67 mM phosphate buffer, pH 7.0 and mixed with 4.5 ml 0.7% Iso-Sensitest agar (Oxoid, Basingstoke, Hampshire, England) overlay tempered to 50° C. Terpenoid compounds dissolved in absolute ethanol were added to the cell/agar overlay mixture yielding final concentrations of 0.5, 1.0 or 2.0 mM, depending on the experiment. The final concentration of ethanol in cell overlays was 0.5% and the final concentration of target cells was ca. 10^6 cfu/ml. After thorough vortexing, terpenoid-containing cell overlays were poured over hardened Iso-Sensitest agar (2% agar) plates and allowed to set. […] After incubation, zones of inhibition were measured with a ruler from the bottom of the plates."}, "[2]": {"tested_on": "Enterococcus faecalis Bact. 4025", "format": "cell-based", "conditions": "E. faecalis", "procedure": "as §1, §2"}, "[3]": {"tested_on": "Lactobacillus fermentum ATCC 14931", "assay": "Flow cytometry, uptake of ethidium bromide by L. fermentum", "format": "cell-based", "conditions": "15 μM ethidium bromide", "procedure": "(§3) Erwinia sp. #351 was from Presque Isle Cultures, Presque Isle, Pa. Lactobacillus fermentum ATCC 14931, zygosaccharomyces bailii ATCC 60483 and E. coli ATCC 25922 (National Committee on Clinical Laboratory Standards antibiotic test strain) were from the American Type Culture Collection, Manassas, Va. Staphylococcus aureus ATCC 6538 and Enterococcus faecalis Bact. 4025 were obtained from the UW-Madison Department of Bacteriology culture collection. All bacteria except for L. fermentum were grown statically in screwcap tubes containing 10 ml Trypticase Soy Broth (BBL, Cockeysville, Md.) for 20-22 hours at 30° C. L. fermentum was grown statically in screwcap tubes containing 10 ml MRS broth (Difco) for 20-22 hours at 30° C. Cultures of Z. bailii were grown in 125 ml culture flasks containing 50 ml YM broth (Difco) on a rotary shaker set at 200 rpm for 20-22 hours at 25° C. For experiments involving flow cytometry, overnight cultures of Erwinia sp., L. fermentum and Z. bailli were set to a concentration of ca. 10^7 cfu/ml in 67 mM phosphate buffer, pH 7.0 (filtered, 0.2 μm). For the examination of sesquiterpenoids, cell suspensions containing either 0.5% ethanol and 15 μM ethidium bromide or 0.5 mM apritone, bisabolol, nerolidol or farnesol dissolved in ethanol (0.5% ethanol, final concentration) and 15 μM ethidium bromide were incubated for 40 minutes at room temperature. After incubation, cell suspensions were diluted 1:10 in 67 mM phosphate buffer, pH 7.0 (filtered, 0.2 μm) and examined using a FACScan flow cytometer (Becton Dickinson and Company, Cockeysville, Md.). Data were collected in logarithmic mode on forward scatter, side scatter and fluorescence characteristics of the cells."}, "[4]": {"tested_on": "zygosaccharomyces bailii ATCC 60483", "assay": "Flow cytometry, uptake of ethidium bromide by Z. bailii", "format": "cell-based", "conditions": "0.5 mM sesquiterpenoid, 15 μM ethidium bromide, 40 minutes", "procedure": "as §3"}, "E. coli ATCC 25922": {"tested_on": "E. coli ATCC 25922", "assay": "Plating assay, nerolidol enhancing polymyxin B activity against E. coli", "format": "cell-based, Escherichia coli", "conditions": "1 mM nerolidol plus 10 ppm polymyxin B, up to 30 minutes at 37° C.", "procedure": "as §1, with “25° C. […]” for “25° C.”\nCell suspensions (1.7×10^7 cfu/ml in 67 mM phosphate buffer, pH 7.0) were treated as shown and incubated for up to 30 minutes at 37° C. Cell viability was determined at appropriate intervals by pour plating with Trypticase Soy agar tempered to 50° C."}}, "note": "Entries after “also recorded” stand apart in the source; their conditions may differ.", "data": [{"smiles": "C=CC(C)(O)CCC=C(C)CCC=C(C)C", "note": "(stereo not shown) [nerolidol]", "values": [{"measurement": "ability to sensitize S. aureus to ciprofloxacin", "setting": "[1]; 0.5 mM terpenoid, ciprofloxacin 5 μg disc", "result": "most effective"}, {"measurement": "sensitization to six different antibiotics", "setting": "[1]; disc diffusion, 0.5-2 mM sesquiterpenoid", "result": "readily sensitized"}, {"measurement": "zone size, ciprofloxacin 5 μg disc", "setting": "[1]; terpenoid at 0.5 mM in agar overlay, ciprofloxacin 5 μg disc", "result": 27.5, "unit": "mm"}, {"measurement": "zones smaller than control plates by", "setting": "[2]; clindamycin 2 μg disc, 1 mM sesquiterpenoid", "result": 1, "unit": "mm"}, {"measurement": "degree of sensitization to antibiotics", "setting": "[2]; disc diffusion, 1 mM sesquiterpenoid", "result": "only a modest degree of sensitization"}, {"measurement": "enhancement of inhibition zone size", "setting": "[2]; nerolidol 1 mM combined with gentamicin 10 μg disc", "result": "almost two-fold enhancement"}, {"measurement": "time to substantial uptake of ethidium bromide", "setting": "[3]; 0.5 mM nerolidol", "result": "≤ 5", "unit": "min"}, {"measurement": "uptake of ethidium bromide (ethidium-conferred fluorescence)", "setting": "[3]; 0.5 mM sesquiterpenoid, 40 minutes", "result": "facilitated the uptake of ethidium bromide"}, {"measurement": "uptake of ethidium bromide (fluorescence, chromosomal staining)", "setting": "[4]", "result": "became more fluorescent"}, {"measurement": "susceptibility of E. coli to polymyxin B (cell viability, cfu/ml)", "setting": "E. coli ATCC 25922", "result": "dramatic increase in the susceptibility; also recorded: synergistic effect"}]}]}
